Patent EP4420684A1, “DNA TOXIC DIMER COMPOUND AND CONJUGATE THEREOF” (Systimmune, Inc., priority 2022, dated 2023)

Key:
SK-BR-3 tumor cells = assay: In vitro activity test (MTS, 5 days), growth inhibition of SK-BR-3 cells; type: cell-based; conditions: Homo sapiens, 120 h
Description: • Cells: derived from the Cell Bank of the Chinese Academy of Sciences; • Tumor cell culture medium: Gibco™; • Fetal Bovine Serum (FBS): BIOWEST™;
• Growth medium (with 10% FBS, Penicillin/streptomycin (100 U/mL); • Assay medium (with 1% FBS, Penicillin/streptomycin (100 U/mL);
The biosafety cabinet was turned on for UV light irradiation 30 min in advance, and subsequently ventilated for 3 minutes. The growth medium, assay medium, D-PBS and trypsin were preheated in a 37°C thermostatic water bath, after which the surface was sterilized with alcohol and placed in the biosafety cabinet. Cells with a confluence of ~80% (logarithmic growth phase) were selected and placed in a biosafety cabinet, old medium was aspirated off, rinsed with D-PBS, aspirated and discarded, digested with trypsin for 2-3 minutes, after which growth medium was added to terminate the trypsin, and centrifuged at 500 × g for 5 minutes. The centrifugation supernatant was aspirated off, and the cells were mixed with 4 mL of assay medium, and 100 uL of the cells were taken for counting (of which 50 uL of cytosol was taken out, and 50 uL of 0.4% cell solution was added to 50 µL of 0.4% Trypan Blue Stain and mix, count after mixing). Spread the plate according to the previously set cell number, 80 uL/well in 96-well plate, wells E11, F11, G11 only received 80 uL of detection medium, the wells on the edge received 200 uL of DPBS to seal the edge. After the cells are completely attached to the wall (usually at least 4 hours), the test samples were configured and diluted: 1.0 mL of 2.5 µM (5 ×Top Dose) test samples were configured with the assay medium and dispensed into the first column of the V-type 96-well plate, with 200 µL in each well; 180 µL of assay medium was added to the second through eighth columns, and 30 µL was added to the second column from the first column, and mixed up and down with a row gun for […]. The test medium was mixed up and down 10 times with a row gun, discard the gun tip, and the remaining test concentration points were operated sequentially to perform 7-fold gradient concentration dilution. […]
The MTS reagent was removed from the test samples after 5 days of action, thawed at room temperature and protected from light, vortexed and mixed thoroughly, and then 20 µL of Cell Titer One Solution Reagen MTS reagent was added along the side wall of the wells for every 100 µL of cell culture volume in a biosafety cabinet. […] After the end of the reaction, took out the 96-well plate, placed in the enzyme labeling instrument to detect the OD490 nm absorbance value, and performed the data recording, organization and storage.

N87 tumor cells = assay: In vitro activity test (MTS, 5 days), growth inhibition of N87 cells; type: cell-based; conditions: 120 h
Description: The biosafety cabinet was turned on for UV light irradiation 30 min in advance, and subsequently ventilated for 3 minutes. The growth medium, assay medium, D-PBS and trypsin were preheated in a 37°C thermostatic water bath, after which the surface was sterilized with alcohol and placed in the biosafety cabinet. Cells with a confluence of ~80% (logarithmic growth phase) were selected and placed in a biosafety cabinet, old medium was aspirated off, rinsed with D-PBS, aspirated and discarded, digested with trypsin for 2-3 minutes, after which growth medium was added to terminate the trypsin, and centrifuged at 500 × g for 5 minutes. The centrifugation supernatant was aspirated off, and the cells were mixed with 4 mL of assay medium, and 100 uL of the cells were taken for counting (of which 50 uL of cytosol was taken out, and 50 uL of 0.4% cell solution was added to 50 µL of 0.4% Trypan Blue Stain and mix, count after mixing). Spread the plate according to the previously set cell number, 80 uL/well in 96-well plate, wells E11, F11, G11 only received 80 uL of detection medium, the wells on the edge received 200 uL of DPBS to seal the edge. […]

Compound	IC50 (SK-BR-3 tumor cells) [nM]	IC50 (N87 tumor cells) [nM]
COc1cc2c(cc1OCCCCC(=O)N1C[C@@H](CCl)c3c1cc(O)c1cccc(C)c31)N=C[C@@H]1CC(c3ccc(NC(=O)CO)cc3)=CN1C2=O [Compound C1]	8.67	9.68
COc1cc2c(cc1OCCCCC(=O)N1C[C@@H](CCl)c3c1cc(O)c1cccc(C)c31)N=C[C@@H]1Cc3ccc(NC(=O)CO)cc3N1C2=O [Compound D1]	10.3	12.3
COc1ccc(C2=CN3C(=O)c4cc(OC)c(OCC56CC(C(=O)N7C[C@@H](CCl)c8c7cc(O)c7cccc(C)c87)(C5)C6)cc4N=C[C@@H]3C2)cc1 [Compound A]	0.52	
COc1cc2c(cc1OCC13CC(C(=O)N4C[C@@H](CCl)c5c4cc(O)c4cccc(C)c54)(C1)C3)N=C[C@@H]1CC(c3ccc(NC(=O)CO)cc3)=CN1C2=O [Compound B1]	4.23	5.03
